Patent US7959904B2, “Delivery of medicaments to the nail” (University of Mississippi, priority 2001, dated 2011)

Test: Permeability study through full thickness nail plates in modified Franz diffusion cells
Type: in vitro ADME, human
Conditions: for Total permeation of drug through nail plates: phosphate buffer pH 7.2 / 0.5% Brij 58 donor, after 48 hours
Experimental: Example 6 examines permeability of the medicament into the nail. For this Example, ketoconazole is utilized as a model drug to perform permeability studies. The drug is dissolved in two different media for testing which functioned as the donor solution. The first is an isotonic phosphate buffer solution (pH 7.2) with 0.5% Brij 58 as a solubilizer. The second is an 80:20 methanol/water solution buffered to pH 7.2. The receptor media is the same as the donor media without dissolved drug in both cases.
A system employing 9 modified glass Franz diffusion cells is used. Full thickness nail plates are sandwiched between two polypropylene adapters with an O-ring and were mounted on the individual cells with the dorsal nail plate facing the donor compartment (receptor volume 5.2 ml; donor surface area 0.5 cm^2). The receptor fluid is maintained at 37±0.5° C. and is continuously stirred with a magnetic bar. The donor solutions are applied to the dorsal nail surface following a one hour hydration period. Samples of the receptor phase are withdrawn at predetermined time intervals (for up to 48 hours) and immediately replaced with fresh […]. Analysis of the samples is corrected for previous drug removed. The receptor and donor compartments are sealed with a sheet of aluminum foil and wrapped with parafilm. The hermeticity of the system was continuously monitored. Drug content in the receptor media is determined using high performance liquid chromatography.

Greater total permeation, etched vs nonetched nail (80:20 methanol/water buffered to pH 7.2 donor): ~3 fold
Total permeation of drug through nail (80:20 methanol/water buffered to pH 7.2 donor, etched nail): 6,191±323.3 μg/cm^2
Total permeation of drug through nail (80:20 methanol/water buffered to pH 7.2 donor, nonetched nail): 2,497±237 μg/cm^2
Total permeation of drug through nail plates (etched nail plates): 1,873 (±155) μg/cm^2
Total permeation of drug through nail plates (unetched nail plates): 446 (±51) μg/cm^2
Difference in total permeation, etched vs unetched nail (phosphate buffer/Brij 58 donor, 48 hours): ~4 fold
SMILES: CC(=O)N1CCN(c2ccc(OCC3COC(Cn4ccnc4)(c4ccc(Cl)cc4Cl)O3)cc2)CC1 (stereo not drawn) [ketoconazole]
